What was measured:
[1] = tested on: microvessels in bFGF-containing matrigel plugs; assay: In vivo angiogenesis (matrigel plug) assay, systemic treatment; set-up: species or system mice; details: rt-PA 60 μg subcutaneously/day, captopril 150 μg intraperitoneally/day, 10 days
Method: In Vivo Angiogenesis (Matrigel Plug) Assay. The matrigel-plug assay was performed as described in Maeshima et al., (Maeshima et al., J Biol Chem 275:21340-8, 2000; Maeshima et al., J Biol Chem 276:31959-68, 2001) with modifications as follows. All animal studies were reviewed and approved by the animal care and use committee of Beth Israel Deaconess Medical Center and are in accordance with the guidelines of the department of Health and Human Services. Five to six week-old male C57/BL6 mice (The Jackson Laboratories; Bar Harbor, Me.) were injected subcutaneously at the left lower abdominal wall with 0.5 ml of unpolymerized matrigel supplemented with 500 ng/ml of basic fibroblast growth factor for the stimulated controls and treatment groups and with equivalent volume of sterile PBS for the unstimulated (no b-FGF) control group. Mice (3 per group) were treated for 10 days with: 1) rt-PA (60 μg subcutaneously/day) and captopril (150 μg intraperitoneally/day). 2) Subcutaneous rt-PA alone with equivalent volume of intraperitoneal (IP) PBS. 3) IP captopril (150 μg) with equivalent volume of subcutaneous PBS. 4) Equivalent volumes of PBS (subcutaneously and intraperitoneally). […] Sections were examined by light microscopy, and the total number of blood vessels from 10 high power fields (400× magnification) were counted in a blinded fashion. […]

HUVEC cells = assay: In vitro angiogenesis (matrigel tube formation) assay; assay type: cell-based, human
Method: In Vitro Angiogenesis (matrigel tube formation) Assay. Unpolymerized matrigel (7 mg/ml) was placed in the wells (100 μl/well) of a pre-chilled 48-well cell culture plate and then incubated at 37° C. for 30-45 minutes. HUVEC cells were harvested in trypsin and resuspended in EC medium (4×10^4 in 300 μl). Cells were treated with the different agents before plated onto the matrigel-coated plates. […] Microphotographs of the center of each well at low power (40×) were taken with a SPOT camera (Diagnostic Instruments Inc; Sterling Heights, Mich.) and the aid of an imaging capture software (Compix Inc Imaging Systems; Township, Pa.). The microphotographs were quantitatively analyzed (total tube length) with the Simple PCI imaging analysis software (Compix).
Matrigel tube formation assays. Samples collected from the purification process were exchanged into 1×PBS and reconstituted into 1× concentration (by volume) compared to the input tPA/captopril-treated plasma. They were tested in the matrigel tube formation assays at 10% (v/v) as follows. Unpolymerized matrigel (7 mg/ml) was placed in the wells (100 μl/well) of a pre-chilled 48-well cell culture plate and then incubated at 37° C. for 30-45 minutes for polymerization to take place. […] Tube formation was examined (4× magnification) through an inverted phase contrast microscope (Nikon Corporation; Tokyo, Japan) and recorded by a Spot RT camera (Diagnostic Instruments Inc; Sterling Heights, Mich.) using an automated image capture software (Compix Inc Imaging Systems; Township, Pa.).

platelet aggregation = details: phenylalanine to alanine mutation at position 2; cited from earlier work
[2] = tested on: blood vessels in bFGF-enriched matrigel plugs; assay: In vivo matrigel-plug assay, agent mixed into matrigel; set-up: species or system mice
Method: In vivo matrigel-plug assays. The matrigel-plug assay was performed as described in Maeshima et al., (Maeshima et al., J Biol Chem 275:21340-8, 2000; Maeshima et al., J Biol Chem 276:31959-68, 2001) with modifications as follows. Briefly, 500 μl of unpolymerized matrigel at a concentration of 10 mg/ml enriched with bFGF (250 ng/ml) were mixed with one of the following: PBS (vehicle), prothrombin, or TRAP. Each mixture was injected subcutaneously at the left lower abdominal wall of C57/B mice (5 to 6-week old; Jackson laboratories; Bar Harbor, Me.). At day ten, the mice were sacrificed. The matrigel plugs were then excised, fixed in 4% paraformaldehyde, embedded in paraffin, sectioned, and H&E stained. Sections were examined by light microscopy, and the total number of blood vessels from 10 high power fields (400×) were counted in a blinded fashion. Only the micro-vessels containing red blood cells were counted as positive. Results shown represent the average of counts from 4 to 5 matrigel plugs per group.

[3] = tested on: 4T1 murine breast cancer cell line; assay: Primary tumor growth of transfected 4T1 cells in BALB/c mice; assay type: in vivo; details: stable expression in 4T1 cells, mammary pad of BALB/c mice, vs empty vector, five weeks
Source text: Construction of mutant uPA clones and cell transfection. We chose to pursue a genetic approach, in which we stably transfected an aggressive and highly metastatic murine breast cancer cell line (4T1) with the genes for wild type uPA, tPA and a receptor binding mutant of uPA (uPAm). We inserted the cDNA encoding murine tPA into pcDNA 3.1 (+) (Invitrogen), a CMV driven mammalian expression vector, by restriction enzyme digestion of BamHI and NheI. Wild type uPA cDNA was inserted to the pcDNA 3.1 (+) expression vector and the transfected into 4T1 cells in a similar fashion as described for the tPA cDNA. Residues 22, 27, 29 and 30 on the growth factor domain of the murine uPA molecule have been implicated in binding to mouse uPAR.
The pcDNA 3.1-tPA, pcDNA 3.1-wild type uPA, pcDNA 3.1-uPAm constructs, as well as an empty vector control were introduced into 4T1 cells by transfection using lipofectamine (Gibco-BRL) reagent. We selected 12-14 stable single clones in each group with 500 ug/mL of hygromycin. Each of the clones was evaluated for generation of the gene of interest by northern blot. The clones that had the highest generation of the genes of interest were selected. […]
Experiments using transfected tumor cells. […] Primary tumor size was measured every other day for a total of five weeks using calipers and calculated using the standard formula (width2×length×0.52). […]

Molecule: C[C@H](CS)C(=O)N1CCC[C@H]1C(=O)O [captopril]
- microvessel counts in matrigel plugs [1]: did not show major reduction of neovascularization
- inhibition of tube formation (HUVEC cells; in the absence of plasma, rt-PA 1 μg/ml, captopril 0.1 μM): did not cause significant inhibition of tube formation

Molecule: Angiostatin
- inhibition of tube formation (HUVEC cells; 10 μg/ml): did not significantly inhibit tube formation
- inhibition of tube formation (HUVEC cells; 50 μg/ml): did not significantly inhibit tube formation

Molecule: GYPGKF
- endothelial cell tube formation (HUVEC cells; 100 μM peptide): little effect on tube formation

Molecule: SALLRN
- ability to induce platelet aggregation in vitro (platelet aggregation): completely eliminated the ability of the peptide to induce platelet aggregation
- endothelial cell tube formation (HUVEC cells; 100 μM peptide): no inhibitory effect

Molecule: SFLLRN
- endothelial cell tube formation (HUVEC cells; 50 and 100 μM SFLLRN): dose-dependent inhibitory effect on endothelial cell tube formation

Molecule: SFLLRNPNDKYEPF [TRAP]
- reduction of bFGF-stimulated blood vessel formation in matrigel plugs ([2]; 250 ng/ml bFGF, day 10, 10 ρg/ml prothrombin, 250 μM TRAP (FIG. 13)): significantly reduced
- endothelial cell tube formation (HUVEC cells; 1, 10, 100 μM TRAP): dose-dependently inhibited endothelial cell tube formation

Molecule: SLIGKV
- endothelial cell tube formation (HUVEC cells; 100 μM peptide): little effect on tube formation

Molecule: bFGF: basic fibroblast growth factor (Peprotech), proangiogenic stimulant
- increase in angiogenesis in matrigel plugs ([2]; 250 ng/ml bFGF vs no bFGF): seven-fold increase

Molecule: lepirudin
- block of thrombin inhibition of tube formation (HUVEC cells; 10 U/ml thrombin with 200 U/ml lepirudin): completely blocked
- endothelial cell tube formation (HUVEC cells; lepirudin alone at 200 U/ml): no effects in endothelial cell tube formation
- block of prothrombin inhibition of tube formation (HUVEC cells; prothrombin with 200 U/ml lepirudin): completely blocked

Molecule: thrombin
- endothelial cell tube formation (HUVEC cells; thrombin at 5 U/ml (FIGS. 11D, 11E: 1 and 5 U/ml)): minimal effects on endothelial cell tube formation
- endothelial cell tube formation (HUVEC cells; thrombin at 10 U/ml): significantly inhibits tube formation

Molecule: wildtype uPA: murine wild type uPA expressed from pcDNA 3.1 in 4T1 cells
- inhibition of primary tumor growth [3]: significantly inhibit tumor cell growth

Source: US20050232925A1, “Protease activity of thrombin inhibits angiogenesis” (priority 2002, published 2005)
